The results in this text go back to patent US20050165011A1, “Benzoxazine and benzoxazinone substituted triazoles” (priority 2002, published 2005).

In data set [1] the test system is TGF-β signaling (PAl-1 promoter luciferase reporter, HepG2 cells). In words: Cellular transcriptional assay (PAI-1 promoter luciferase reporter in HepG2 cells exposed to TGF-β). It counts as cell-based. The following applies: 500 μM CPO in the presence of TGF-β; toxicity control. How it is done:
Assay 1 (Cellular Transcriptional Assay)
The assay was performed in HepG2 cells stably transfected with the PAl-1 promoter (known to be a strong TGF-β responsive promoter) linked to a luciferase (firefly) reporter gene. The compounds were selected on their ability to inhibit luciferase activity in cells exposed to TGF-β. In addition, cells were transfected with a second luciferase (Renilla) gene which was not driven by a TGF-β responsive promoter and was used as a toxicity control.
96 well microplates were seeded, using a multidrop apparatus, with the stably transfected cell line at a concentration of 35000 cells per well in 200 μl of serum-containing medium. These plates were placed in a cell incubator.
18 to 24 hours later (Day 2), cell-incubation procedure was launched. […] Each well contained only one candidate compound and its effect on the PAl-1 promoter was monitored.
Columns 11 and 12 were employed as controls. […] Column 11 was used to determine the ‘reference TGF-β induced firefly luciferase value’ against which values measured in the test wells (to quantify inhibitory activity) were compared. […]
12 to 18 hours later (day 3), the luciferase quantification procedure was launched. […] Following agitation (15 to 30 mins), luciferase activities of the plates were read in a dual-injector luminometer (BMG lumistar). […]
In general terms: Reporter assays use an easily measured gene product as a stand-in for the process of interest.

Structures are written as SMILES.

By melting point is commonly meant the temperature of the solid-liquid transition. Consider `Cc1cccc(-c2[nH]nnc2-c2ccc3c(c2)NC(=O)CO3)n1`, for which the melting point came out at 224 °C. On the same count and under the same terms, to `Cc1cccc(-c2[nH]nnc2-c2ccc3c(c2)N(CCN2CCOCC2)C(=O)CO3)n1` belongs 150 °C; to `O=C1COc2ccc(-c3nn[nH]c3-c3ccccn3)cc2N1`, 256 °C; to `O=C1COc2ccc(-c3nn[nH]c3-c3cccc(Cl)c3)cc2N1`, 220 °C. As to `CCN1C(=O)COc2ccc(-c3nn[nH]c3-c3cccc(C)n3)cc21`, the melting point was 187 °C. In the case of `O=C1C=CCC1` [CPO, Cyclopentenone], the “firefly and renilla luciferase activities relative to TGF-β only wells” value in data set [1] is reported as “around 50%”.
